Measurements as given in patent US20170340588A1, “MODULATION OF REGULATORY T CELLS VIA G-COUPLED PROTEIN RECEPTOR 43” (President and Fellows of Harvard College, priority 2013, published 2017).

What was measured:
[1] = test system: colonic Treg (cTreg); assay: Antibiotic (vancomycin) treatment of SPF mice with or without SCFA; type: in vivo; conditions: Ffar2-/- vs Ffar2+/+ mice
Protocol: Science 341: 1645 (2013). […] The crude cell suspension was loaded onto a 40%/90% Percoll (GE Healthcare) gradient and centrifuged at 720 x g for 25 min at room temperature with acceleration and brake turned off. LP lymphocytes were collected from the 40%/90% interface. Intracellular staining of the transcription factors Foxp3, Helios and T-bet was performed using the Foxp3 Fix/Perm Buffer Set (Biolegend). For detection of intracellular cytokines, cells were first stimulated for 4 h with 50 ng/ml PMA and 1 μg/ml ionomycin in the presence of Brefeldin A (All obtained from Sigma), followed by staining for surface markers. Cells were then fixed and permeabilized using the Foxp3 Fix/Perm Buffer Set (Biolegend) and stained for intracellular cytokines. The following antibodies were used: […] All antibodies were obtained from Biolegend unless otherwise noted. Flow cytometry was performed using LSRII and data were analyzed with FlowJo software (TreeStar, Inc.). Cell sorting was performed using a […] at the Dana-Farber Cancer Institute Flow Cytometry Core.

[2] = test system: HDAC; assay: HDAC expression (RTqPCR) and histone acetylation (Western blot) in cTreg; type: cell-based, mice; conditions: 0.1 mM, 24 hours
Protocol: (§1) Treg were isolated from the colon, small intestine, mesenteric lymph node or spleen of C57BL/6 Foxp3^YFP-Cre mice and FACS-sorted based on expression of YFP. RNA samples were prepared using the RNeasy Mini Kit (Qiagen) and cDNA was synthesized using the Bio-Rad iScript cDNA Synthesis Kit. Real-time (RT)-qPCR was performed using the KAPA SYBR FAST Universal qPCR Kit (KAPA Biosystems) and a Stratagene MX3005P (Agilent Technologies). The following primer sequences were used:
Colonic lamina propria Treg were isolated and whole cell lysates generated using RIPA buffer in the presence of protease inhibitors. Protein lysates were resolved using SDS-PAGE and transferred to PVDF membrane using a Bio-Rad wet transfer apparatus. Blots were probed with antibodies directed against acetyl-histone H3 (K9) and histone H3 (All from Cell Signaling Technologies). After incubation with the appropriate HRP-conjugated antibody, ECL was used for developing. Densitometry analysis of Western blots was performed using Image-J software available on the world wide web at rsbweb.nih.gov/ij/.

[3] = test system: colonic lamina propria Treg; assay: In vitro T cell stimulation of colonic Treg (RTqPCR, ELISA, proliferation); type: cell-based, mice
Protocol: as §1
Colonic lamina propria Treg were isolated from C57BL/6 Foxp3^YFP-Cre mice as described above and FACS-sorted based on expression of YFP. Isolated Treg were cultured in RPMI 1640 medium supplemented with 10% FBS (Gibco), 4 mM L-glutamine, 80 U/ml penicillin, 80 μg/ml streptomycin, 1 mM sodium pyruvate, 10 mM HEPES and 1× nonessential amino acids (all obtained from Cellgro). Treg were stimulated with 1 μg/ml anti-CD3 antibody and with or without 0.1 mM sodium propionate for 24 h at 37° C. The division index is calculated by dividing the total number of cell divisions by the number of cells added at the start of the culture and represents the average number of divisions a cell from the original population has undergone and includes the undivided fraction in the calculation.
Cytokines were measured in culture supernatants using standard cytokines, antibodies and protocols. IL-10 was measured using the BD OptEIA ELISA Kit (BD Biosciences) and TGFβ1 levels were measured using the mouse TGF-beta 1 DuoSet (R&D Systems).

[4] = test system: T cell transfer colitis; assay: T cell transfer model of colitis; type: in vivo, mice
Source text: At Day 0, Naive CD4+CD25^−CD45RB^hi splenic T cells were FACS-sorted from BALB/c mice and injected i.p. into 6-8 week old BALB/c RAG2^−/− immunodeficient recipients (5×10^5 cells/mouse). At day 10, BALB/c RAG2^−/− immunodeficient recipients received CD4^+ CD25^+ CD45RB^lo splenic Treg cells (75,000/mouse) isolated from BALB/c or C57BL/6 mice Ffar2^+/+ and Ffar2^−/− mice where indicated. Mice were monitored weekly for weight loss and morbidity for 6-9 weeks as per the protocol's experimental endpoint guidelines.
Colons were excised and cleaned with DPBS prior to fixation in 4% PFA and then processed by routine paraffin embedding, sectioning and H&E staining. Colitis scores were determined by J.N.G., who was blinded to the experimental parameters. Each of 4 histologic parameters were scored as absent (0), mild (1), moderate (2), or severe (3): mononuclear cell infiltraton, polymorphonuclear cell infiltration, epithelial hyperplasia, and epithelial injury. The scores for the parameters were summed to generate the cumulative histologic colitis score as previously described.

[5] = test system: colonic Treg (cTreg); assay: Ex vivo RTqPCR of cTreg from in vivo treated mice
Protocol: Science 341: 1645 (2013). […] Treg were isolated from the colon, small intestine, mesenteric lymph node or spleen of C57BL/6 Foxp3^YFP-Cre mice and FACS-sorted based on expression of YFP. […] Real-time (RT)-qPCR was performed using the KAPA SYBR FAST Universal qPCR Kit (KAPA Biosystems) and a Stratagene MX3005P (Agilent Technologies).

[6] = mouse, in vivo
Protocol: At the conclusion of the experiment mice were removed from isolators and processed immediately.
Cecal or small intestinal contents were collected immediately after animals were sacrificed and flash frozen in N2(1). Samples were mashed in 500 μl HPLC grade water and centrifuged at >14,000 x g, the resulting supernatant was then passed through a 0.22 μm syringe filter to remove bacterial cells and debris. Samples we then acidified with 1/10 volume of 0.01M H2SO4, heated and passed through a condenser to isolate volatile compounds within a sample. SCFA analyses were performed using an Agilent 1200 series HPLC and a Poroshell 120 SB C18 column (2.7 μm, 3.0×100mm) with guard column (Agilent Technologies). Sulfuric acid (0.01M) was used as the mobile phase. SCFA concentrations were weight corrected.

[7] = in vivo treated GF and SPF mice

CCC(=O)O [Propionate, propionic acid]
restoration of cTreg populations and numbers in the setting of vancomycin treatment [1]: Ffar2 was necessary | cTreg expression of HDAC6 and HDAC9 ([2]; Ffar2+/+): reduced | cTreg expression of class I HDAC1 and HDAC2 or class IIa HDAC7 ([2]; Ffar2+/+): did not reduce | histone acetylation (H3K9) ([2]; cTreg, required Ffar2): enhanced | Foxp3 and IL-10 expression and IL-10 protein levels ([3]; Ffar2+/+ cTreg, 0.1 mM, 24 hours): enhanced | cTreg proliferation ([3]; anti-CD3 and IL-2, 0.1 mM propionate): enhanced proliferation | Foxp3 and IL-10 expression in cTreg ([3]; cTreg from GF mice stimulated 24 hours in vitro, 0.1 mM): significant increase | IL-10 production ([3]; cTreg from GF mice, in vitro 24 hours, 0.1 mM, ELISA): increased | Foxp3 expression, IL-10 expression and IL-10 protein production ([3]; cTreg from SPF mice, 24 hours in vitro, 0.1 mM): increases | effect on intestinal inflammation (colitis scores) ([4]; Ffar2+/+ or Ffar2-/- Treg transferred): dependent upon Ffar2 expression in Treg | degrees of colonic crypt injury, inflammation, and hyperplasia ([4]; H&E, compared to control mice): reduced degrees | frequency and number of colonic LP Foxp3+ Treg ([4]; T cell transfer colitis): increase | weight loss ([4]; naïve T cells and Treg, vs water alone (P<0.0001)): less severe | mean colitis score ([4]; naïve T cells and Treg, water alone 5.1±0.6): 2.0±0.6 | Foxp3 and IL-10 expression in cTreg ([5]; cTreg from GF mice treated in vivo for three weeks): significant increase | levels of chemokine receptor CCR9 or α4β7 integrin in cTreg [5, 7]: not altered | levels of the cTreg homing receptor GPR15 [5, 7]: increase | SCFA levels, SPF SI [6]: 2.69 ± 0.24 µmol/g | SCFA levels, SPF SI + P [6]: 12.08 ± 3.69 µmol/g | SCFA levels, cecal contents, ASF [6]: 18.83 ± 2.72 µmol/g | SCFA levels, cecal contents, GF [6]: 1.46 ± 0.162 µmol/g | SCFA levels, cecal contents, GF + Mic [6]: 11.78 ± 6.38 µmol/g | SCFA levels, cecal contents, GF + P [6]: 14.93 ± 4.50 µmol/g | SCFA levels, cecal contents, SPF [6]: 21.90 ± 0.122 µmol/g | SCFA levels, cecal contents, SPF + P [6]: 43.33 ± 12.17 µmol/g | SCFA levels, cecal contents, SPF + Vanco [6]: 1.851 ± 1.41 µmol/g
